In BindingDB's records for doi:10.1021/acs.biochem.6b00486 (Academia Sinica, 2016):

What was measured:
IspB protein [1] = target: T1, IspB protein (Escherichia coli (strain 55989 / EAEC), UniProt B7LHQ0); test: Fluorescent Assay
IspB protein [2] = target: T1, IspB protein; test: Radioactive Assay

T1 sequence (B7LHQ0 whole entry): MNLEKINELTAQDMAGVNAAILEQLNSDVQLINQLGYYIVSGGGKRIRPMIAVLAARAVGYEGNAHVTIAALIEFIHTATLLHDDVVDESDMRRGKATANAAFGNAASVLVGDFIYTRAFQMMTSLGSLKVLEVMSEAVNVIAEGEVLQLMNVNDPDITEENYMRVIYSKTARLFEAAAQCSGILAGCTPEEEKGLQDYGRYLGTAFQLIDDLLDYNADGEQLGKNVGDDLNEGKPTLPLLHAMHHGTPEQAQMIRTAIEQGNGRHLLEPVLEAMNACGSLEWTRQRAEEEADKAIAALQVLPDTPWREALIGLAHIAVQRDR

IC50 (IspB protein [1]): 220 nM
IC50 (IspB protein [2]): 290 nM
SMILES: O=P(O)(O)C(O)(Cn1ccnc1)P(=O)(O)O
